Active and inactive are the calls of the source. The rule behind the calls is not given here.
Experiments:
[1] = test system: Staphylococcus aureus; experiment: Antibiofilm activity against methicillin-resistant Staphylococcus aureus in the presence of Cl-; type: functional, organism-based
[2] = test system: Staphylococcus aureus; experiment: Induction of morphological changes in methicillin-resistant Staphylococcus aureus assessed as membrane damage at MIC concentration incubated for 60 mins by SEM analysis; type: functional, organism-based
[3] = test system: Klebsiella pneumoniae; experiment: Antibiofilm activity against Klebsiella pneumoniae assessed as increase in dead cell proportion at 0.5 times of MIC incubated overnight by SYTO9/PI staining based fluorescence analysis; type: functional, organism-based
[4] = […] activity against LPS-induced human PBMC assessed as increase in cell number by measuring rise in cell proliferation percentage at 12.5 uM measured after 12 hrs by lymphocyte proliferation assay (12 hrs incubated Rvb = 478.774%); type: functional
[5] = test system: Staphylococcus aureus; experiment: Induction of morphological changes in methicillin-resistant Staphylococcus aureus assessed as cellular destruction at MIC concentration incubated for 6 hrs by AFM analysis; type: functional, organism-based
[6] = test system: U-937; experiment: Immunomodulatory activity in human U-937 cells assessed as reduction in LPS-induced IL-6 expression level incubated for 24 hrs by radioimmunoprecipitation based dot-plot analysis; type: functional, cell-based; conditions: dose 5-10 µM
[7] = test system: Klebsiella pneumoniae; experiment: Induction of resistance development in Klebsiella pneumoniae assessed as fold increase in MIC at 0.5 times of MIC incubated with compound for 12 hrs followed by replacement with fresh medium for 12 hrs and measured after 20 repeated cycles; type: functional; conditions: time 240 hrs
[8] = test system: Klebsiella pneumoniae; experiment: Antibiofilm activity against Klebsiella pneumoniae assessed as biofilm eradication at 1 times of MIC incubated for 24 hrs by CV staining based analysis relative to control; type: functional
[9] = test system: Klebsiella pneumoniae; experiment: Antibiofilm activity against Klebsiella pneumoniae assessed as biofilm clearance incubated for 24 hrs by Congo red dye based fluorescence analysis; type: functional, organism-based
[10] = Cytotoxicity against human MCF7 cells assessed as cell viability at 25 uM incubated for 24 hrs by MTT assay relative to control; type: toxicity, cell-based; conditions: read-out: Activity
[11] = test system: Pseudomonas aeruginosa; experiment: Induction of morphological changes in Pseudomonas aeruginosa assessed as cellular destruction at MIC concentration incubated for 6 hrs by SEM analysis; type: functional, organism-based
[12] = test system: Klebsiella pneumoniae; experiment: Antibiofilm activity against Klebsiella pneumoniae assessed as biofilm disintegration at 0.5 to 1 times of MIC incubated for 24 hrs by Congo red dye based fluorescence analysis; type: functional, organism-based
[13] = Cytotoxicity against human MCF7 cells assessed as cell viability at 12.5 uM incubated for 24 hrs by MTT assay relative to control; type: toxicity, cell-based; conditions: read-out: Activity
[14] = test system: Cell membrane; experiment: Induction of outer membrane permeabilization in Klebsiella pneumoniae at 0.5 to 1 times of MIC incubated for 5 to 20 mins by fluorescence based NPN uptake assay; type: subcellular; conditions: time 5-20 min
[15] = test system: Escherichia coli; experiment: Induction of morphological changes in Escherichia coli assessed as membrane damage at MIC concentration incubated for 60 mins by SEM analysis; type: functional, organism-based
[16] = organism: Rattus norvegicus; experiment: Induction of wound healing in surgically-induced Albino Wistar rat wound model assessed as dense epithelial-tissue layers at 10 uM measured after 11 days by H&E staining based analysis; type: functional; conditions: time 11.0 day
[17] = test system: Klebsiella pneumoniae; experiment: Antibacterial activity against Klebsiella pneumoniae ATCC BAA-1705 assessed as inhibition of bacterial growth at 25 to 100 uM incubated overnight by spotting assay; type: functional, organism-based; conditions: dose 25-100 µM
[18] = test system: Klebsiella pneumoniae; experiment: Antibiofilm activity against Klebsiella pneumoniae in the presence of Na+; type: functional, organism-based
[19] = test system: Cell membrane; experiment: Induction of outer membrane permeabilization in Escherichia coli at 0.5 to 1 times of MIC incubated for 5 to 20 mins by fluorescence based NPN uptake assay; type: subcellular; conditions: time 5-20 min
[20] = organism: Rattus norvegicus; experiment: Induction of wound healing in surgically-induced Albino Wistar rat wound model inoculated with methicillin-resistant Staphylococcus aureus assessed as sebaceous gland formation at 10 uM measured after 11 days by H&E staining based analysis; type: functional; conditions: time 11.0 day
[21] = organism: Rattus norvegicus; experiment: Induction of wound healing in surgically-induced Albino Wistar rat wound model assessed as proper formation of blood vessels at 10 uM measured after 11 days by H&E staining based analysis; type: functional; conditions: time 11.0 day
[22] = test system: Escherichia coli; experiment: Antibiofilm activity against Escherichia coli in the presence of Na+; type: functional, organism-based
[23] = test system: Escherichia coli; experiment: Induction of morphological changes in Escherichia coli assessed as decrease in legible cells at MIC concentration incubated for 6 hrs by AFM analysis; type: functional, organism-based
[24] = test system: Klebsiella pneumoniae; experiment: Antibacterial activity against carbapenem resistance Klebsiella pneumoniae ATCC BAA-1705 assessed as inhibition of bacterial growth incubated for 0.5 to 8.5 hrs by microtiter plate reader analysis; type: functional, organism-based; conditions: dose 1.25-40 µM, time 0.5-8.5 hrs
[25] = test system: Escherichia coli; experiment: Antibacterial activity against Escherichia coli assessed as inhibition of bacterial growth at 1.25 to 40 uM incubated for 8 hrs by microtiter plate reader analysis; type: functional, organism-based; conditions: dose 1.25-40 µM
[26] = Hemolytic activity in human RBC assessed as hemolysis at 25 uM incubated for 30 mins under shaking condition by multiplate reader analysis relative to control; type: toxicity, cell-based, Erythrocyte; conditions: human red blood cells (RBC), read-out: Activity
[27] = test system: Staphylococcus aureus; experiment: Antibiofilm activity against methicillin-resistant Staphylococcus aureus in the presence of Na+; type: functional, organism-based
[28] = test system: Staphylococcus aureus; experiment: Antibiofilm activity against methicillin-resistant Staphylococcus aureus assessed as biofilm eradication at 0.5 times of MIC incubated for 24 hrs by CV staining based analysis relative to control; type: functional
[29] = test system: Pseudomonas aeruginosa; experiment: Induction of morphological changes in Pseudomonas aeruginosa at MIC concentration incubated for 6 hrs by SEM analysis; type: functional, organism-based
[30] = test system: U-937; experiment: Immunomodulatory activity in human U-937 cells assessed as effect on IL-6 expression level at 5 to 10 uM incubated for 24 hrs by radioimmunoprecipitation based dot-plot analysis; type: functional, cell-based; conditions: dose 5-10 µM
[31] = test system: Pseudomonas aeruginosa; experiment: Induction of morphological changes in Pseudomonas aeruginosa assessed as membrane damage at MIC concentration incubated for 60 mins by SEM analysis; type: functional, organism-based
[32] = test system: Escherichia coli; experiment: Antibacterial activity against Escherichia coli assessed as inhibition of bacterial growth incubated for 0.5 to 8.5 hrs by microtiter plate reader analysis; type: functional, organism-based; conditions: dose 1.25-40 µM, time 0.5-8.5 hrs
[33] = test system: Staphylococcus aureus; experiment: Antibiofilm activity against preformed biofilm in methicillin-resistant Staphylococcus aureus assessed as decrease in metabolic activity at MIC incubated overnight by MTT assay; type: functional, organism-based
[34] = organism: Rattus norvegicus; experiment: Induction of wound healing in surgically-induced Albino Wistar rat wound model inoculated with methicillin-resistant Staphylococcus aureus assessed as reduction in inflammatory cell infiltration at 10 uM measured after 11 days by H&E staining based analysis; type: functional; conditions: time 11.0 day
[35] = test system: Cell membrane; experiment: Induction of inner membrane permeabilization in Klebsiella pneumoniae assessed as increase in fluorescence at 0.5 to 1 times of MIC incubated for 60 mins by PI staining based fluorescence analysis; type: subcellular
[36] = test system: Pseudomonas aeruginosa; experiment: Antibacterial activity against patient-derived Pseudomonas aeruginosa assessed as inhibition of bacterial growth at 25 to 100 uM incubated overnight by spotting assay; type: functional, organism-based; conditions: dose 25-100 µM
[37] = test system: Cell membrane; experiment: Induction of inner membrane permeabilization in Escherichia coli assessed as increase in fluorescence at 0.5 to 1 times of MIC incubated for 60 mins by PI staining based fluorescence analysis; type: subcellular
[38] = test system: Pseudomonas aeruginosa; experiment: Antibacterial activity against Pseudomonas aeruginosa assessed as inhibition of bacterial growth incubated for 0.5 to 8.5 hrs by microtiter plate reader analysis; type: functional, organism-based; conditions: dose 1.25-40 µM, time 0.5-8.5 hrs
[39] = Cytotoxicity against NMDF cells assessed as viable cells at 12.5 uM incubated for 24 hrs by MTT assay relative to control; type: toxicity, cell-based; conditions: mouse, read-out: Activity
[40] = test system: Klebsiella pneumoniae; experiment: Induction of morphological changes in carbapenem resistant Klebsiella pneumoniae ATCC BAA-1705 assessed as cellular defacement at MIC concentration incubated for 60 mins by SEM analysis; type: functional, organism-based

H-FLPIIKWVKKFFWRWR-OH
Activity [1]: Active | Activity [2]: Active | Activity [3]: inactive | Activity [4]: 52.357% | Activity [5]: Active | Activity [6]: Dose-Dependent Effect | fold change (FC) [7]: 2 | Activity [8]: <=78.28% | Activity [9]: Dose-Dependent Effect | viability at 24 h, 25 µM [10]: 63.8% | Activity [11]: Active | Activity [12]: Active | viability at 24 h, 12.5 µM [13]: 77% | Activity [14]: Active | Activity [15]: Active | Activity [16]: Active | Activity [17]: Active | Activity [18]: Active | Activity [19]: Active | Activity [20]: Active | Activity [21]: Active | Activity [22]: Active | Activity [23]: Active | Activity [24]: Dose-Dependent Effect | Activity [25]: Active | hemolysis at 0.5 h, 25 µM [26]: 20.4% | Activity [27]: Active | Activity [28]: ~70% | Activity [29]: Active | Activity [30]: Active | Activity [31]: Active | Activity [32]: Dose-Dependent Effect | Activity [33]: Active | Activity [34]: Active | Activity [35]: Active | Activity [36]: Active | Activity [37]: Active | Activity [38]: Dose-Dependent Effect | viability at 24 h, 12.5 µM [39]: > 85% | Activity [40]: Active

Source: ChEMBL document CHEMBL5360649, “Potential Broad-Spectrum Antimicrobial, Wound Healing, and Disinfectant Cationic Peptide Crafted from Snake Venom” (J Med Chem, 2023)
